Measurements as given in patent publication US20240409543A1, “PYRROLOPYRAZOLE SPIRO COMPOUND” (CHIA TAI TIANQING PHARMACEUTICAL GROUP CO., LTD., priority 2021, published 2024).

Columns and labels:
SHP2 = target: T1, SHP2 (Homo sapiens, UniProt Q06124); test: SHP2 in-vitro enzymology experiment (Homogeneous Full Length SHP-2 Assay Kit, DiFMUP substrate); format: biochemical; settings: 60 min pre-incubation, 30 min reaction at 25° C.
T1 construct: Homogeneous Full Length SHP-2 Assay Kit (purchased from BPS Bioscience); purchased BPS Bioscience
T1 sequence (Q06124 1-593): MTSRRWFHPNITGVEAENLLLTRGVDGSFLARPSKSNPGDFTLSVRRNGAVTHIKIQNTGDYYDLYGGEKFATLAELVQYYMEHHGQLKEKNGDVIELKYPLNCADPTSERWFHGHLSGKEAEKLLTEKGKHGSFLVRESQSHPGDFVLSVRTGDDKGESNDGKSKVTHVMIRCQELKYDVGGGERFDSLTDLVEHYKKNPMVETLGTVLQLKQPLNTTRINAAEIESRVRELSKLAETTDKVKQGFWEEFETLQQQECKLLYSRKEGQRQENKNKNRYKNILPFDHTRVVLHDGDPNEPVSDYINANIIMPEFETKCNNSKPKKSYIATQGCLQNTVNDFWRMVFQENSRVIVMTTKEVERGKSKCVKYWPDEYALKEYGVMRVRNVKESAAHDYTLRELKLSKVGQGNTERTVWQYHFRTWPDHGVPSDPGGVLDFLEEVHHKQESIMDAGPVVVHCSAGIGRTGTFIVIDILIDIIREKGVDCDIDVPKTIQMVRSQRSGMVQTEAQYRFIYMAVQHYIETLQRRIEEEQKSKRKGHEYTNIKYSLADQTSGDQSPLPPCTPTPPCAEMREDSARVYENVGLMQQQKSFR
Protocol: Experimental materials: Homogeneous Full Length SHP-2 Assay Kit (purchased from BPS Bioscience) and NIVO multimode microplate reader.
Preparation of 1× buffer (ready-to-use): 5× buffer was diluted with deionized water to give 1× buffer, which was then placed on ice for later use.
Each test compound was diluted with 100% DMSO to 100 μM as the first concentration, and then diluted in a 4-fold gradient to the 8th concentration (i.e., from 100 μM to 6.1 nM) using a multi-channel pipette. Each gradient of the test compound was diluted with 1× buffer to prepare a working solution with 10% DMSO. The resulting solution was then added to the corresponding wells of a plate at 5 μL/well, with duplicate wells set up. The plate was then centrifuged at 1000 rpm for 1 min.
18 μL of a prepared reaction mixed solution (containing 12.25 μL of deionized water, 5 μL of 5× buffer; 0.25 μL of SHP-2 substrate polypeptide (100 μM), and 0.5 μL of DTT (250 mM)) was added to each well. The plate was then centrifuged at 1000 rpm for 1 min.
An SHP-2 enzyme was diluted to 0.1 ng/μL with 1× buffer. The resulting solution was added to the corresponding wells at 2 μL/well, and 2 μL of 1× buffer and […] were added to each negative control well. This step was performed on ice. The reaction system was then incubated at 25° C. for 60 min for compound pre-incubation.
After the compound pre-incubation was completed, 25 μL of a substrate working solution (containing 19.45 μL of deionized water, 5 μL of 5× buffer; 0.5 μL of DTT (250 mM), and 0.05 μL of SHP-2 Substrate (DiFMUP) (10 mM)) was added to each well, and the reaction system was allowed to react at 25° C. for 30 min. At that time, the final concentration gradient of the compound ranged from 1 μM to 0.061 nM. After the reaction was completed, the fluorescence values were read using the NIVO multimode microplate reader, with an excitation wavelength of 360 nm and an emission wavelength of 460 nm.
Detection of compound background reading values: Each gradient of the test compound diluted with 100% DMSO was added to a new compound plate at 5 μL/well, and then 1× buffer was added at 45 μL/well to achieve a 10-fold dilution to prepare a working solution with 10% DMSO. Next, the compound working solution was added to the detection plate at 5 μL/well, and then 1× buffer was added at 45 μL/well to achieve another 10-fold dilution, bringing the final concentration of DMSO to 1%. The plate was then centrifuged at 1000 rpm for 1 min. The fluorescence values were read using the multimode microplate reader, with an excitation wavelength of 360 nm and an emission wavelength of 460 nm.
The original data were converted to inhibition rates and the IC50 values were obtained by curve fitting using a four-parameter method.

[1] = test system: H358 cells (NCIH358_LUNG); test: Anti-proliferation experiment on tumor cells with KRAS mutations, H358 (3D CellTiter-Glo); format: cell-based; settings: Homo sapiens, NCI-H358, 120 h, 5 days incubation with compound, ultra-low attachment plate
Source text: (§1) Cell culture medium, penicillin/streptomycin antibiotics purchased from Wisent, and fetal bovine serum purchased from Biosera; 3D CellTiter-Glo (chemiluminescence detection reagent for cell viability) reagent purchased from Promega; Cell lines purchased from Nanjing Cobioer Biosciences Co., Ltd. and Wuhan Procell Life Science & Technology Co., Ltd; and Envision multimode microplate reader (PerkinElmer).
(§2) Different types of tumor cells were each seeded in an ultra-low attachment 96-well U-bottom plate, with 80 μL of cell suspension per well. The cell plate was incubated in a CO2 incubator overnight.
(§3) Each test compound was diluted in a 5-fold gradient to the 9th concentration (i.e., from 2 mM to 5.12 nM or from 200 μM to 0.512 nM) using a multi-channel pipette, with duplicate wells set up. 78 μL of medium was added to an intermediate plate, and the serially diluted compound was transferred to the corresponding wells of the intermediate plate at 2 μL/well. The mixture was mixed well and then transferred to the cell plate at 20 µL/well. The concentration of the compound transferred to the cell plate ranged from 10 μM to 0.0256 nM or from 1 μM to 0.00256 nM. The cell plate was then incubated in a CO2 incubator for 3-6 days.
(§4) The chemiluminescence detection reagent for cell viability was added to the cell plate at 100 μL/well, and the luminescence signals were stabilized by incubation for 10 min at room temperature. Readings were taken using the multimode microplate reader.
(§5) The original data were converted to inhibition rates and then the IC50 values were obtained by curve fitting using a four-parameter method (obtained from the “log(inhibitor) vs. response—Variable slope” model in GraphPad Prism). Table 2 illustrates the inhibitory activity of the compounds disclosed herein against the proliferation of different types of tumor cells.

[2] = test system: MiaPaCa-2 cells (MIAPACA2_PANCREAS); test: Anti-proliferation experiment on tumor cells with KRAS mutations, MiaPaCa-2 (3D CellTiter-Glo); format: cell-based; settings: Homo sapiens, MIA PaCa-2, 72 h, 3 days incubation with compound, ultra-low attachment plate
Source text: as §1, §2, §3, §4, §5

Compound	IC50 (SHP2)	IC50 [1]	IC50 [2]
Cc1nc(N2CCC3(CC2)Cn2nccc2C3N)c(CO)nc1Sc1ccnc(N)c1Cl (stereo not drawn) [Compound 1]	1.73 nM	22.1 nM	22.6 nM
CNc1nccc(Sc2nc(CO)c(N3CCC4(CC3)Cn3nccc3C4N)nc2C)c1Cl (stereo not drawn) [Compound 2]	2.87 nM	61.4 nM	24.4 nM
Cc1nc(N2CCC3(CC2)Cn2nccc2C3N)c(CO)nc1Sc1cccnc1C(F)(F)F (stereo not drawn) [Compound 4]	2.14 nM	145 nM	56.9 nM
Cc1nc(N2CCC3(CC2)Cn2nccc2C3N)c(CO)nc1Sc1ccnc(N)c1F (stereo not drawn) [Compound 6]	3.15 nM	120 nM	62.1 nM
